Assay results as given in US11214594B2, “Antimicrobial peptide having synergistic antibacterial effect with antibiotics on multidrug resistant bacteria, and use thereof” (priority 2016, dated 2022).
In brackets after ≈: the same amount, converted by molar mass. Where a SMILES comes first, the peptide text is derived from it.

How the values were obtained:
A. baumannii = assay: MIC of antimicrobial peptide during combined treatment with antibiotic; assay type: cell-based, Acinetobacter baumannii
How it was run: (§1)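 Strains in MH medium at 2×10^6 CFU/ml were mixed with peptide diluted stepwise (2:1) from its MIC, then antibiotic dilutions in MH medium were added to give the antibiotic MIC. The reversed set-up, peptide titrated against fixed antibiotic, gave the peptide MIC.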

MDRAB 12035 = assay: as above; assay type: cell-based, Acinetobacter baumannii
How it was run: as §1

S. epidermidis = assay: microbe, parasite or virus in culture; assay type: cell-based, Staphylococcus epidermidis
How it was run: (§2)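 Broth microdilution in MH medium: bacterial strains diluted to 2×10^6 CFU were mixed with equal volumes of peptide serially diluted twofold in MH medium.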

MDRST 8007 = assay: Minimal inhibitory concentration (MIC), single agent; assay type: cell-based, Salmonella typhimurium; conditions: agent alone
How it was run: as §2

P. aeruginosa = assay: microbe, parasite or virus in culture; assay type: cell-based, Pseudomonas aeruginosa
How it was run: as §2

MDRAB 12036 = assay type: cell-based, Acinetobacter baumannii
How it was run: as §2

E. coli [1] = assay: microbe, parasite or virus in culture; assay type: cell-based, Escherichia coli; conditions: 16 h
How it was run: as §2

MDREC 1229 [2] = assay: microbe, parasite or virus in culture; assay type: cell-based, Escherichia coli
How it was run: as §2

S. typhimurium = assay: microbe, parasite or virus in culture; assay type: cell-based, Salmonella typhimurium
How it was run: as §2

MDREC 1229 [3] = assay: MIC of antibiotic during combined treatment with antimicrobial peptide; assay type: cell-based, Escherichia coli
How it was run: as §1

MDRST 8009 = assay type: cell-based, Salmonella typhimurium; conditions: agent alone
How it was run: as §2

MDREC 1238 = assay type: cell-based, Escherichia coli
How it was run: as §2

MRSA 3126 = assay type: cell-based, Staphylococcus aureus; conditions: 3126
How it was run: as §2

MRSA 3114 = assay type: cell-based, Staphylococcus aureus; conditions: 3114
How it was run: as §2

S. aureus = assay: microbe, parasite or virus in culture; assay type: cell-based, Staphylococcus aureus
How it was run: as §2

E. coli [4] = assay: MIC of antibiotic during combined treatment with antimicrobial peptide; assay type: cell-based, Escherichia coli; conditions: for Antibiotic MIC, Erythromycin / Antibiotic MIC, Linezolid / Antibiotic MIC, Vancomycin: E. coli
How it was run: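 Read-out is the MIC of each combined solution, obtained from MH-medium dilutions of antibiotic added well by well, with a reversed-condition run as well.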

[5] = erythromycin 4 μg/ml (Conc./MIC 1/8)
[6] = erythromycin 8 μg/ml (Conc./MIC 1/4)
[7] = erythromycin 16 μg/ml (Conc./MIC 1/2)
[8] = erythromycin 32 μg/ml (Conc./MIC 1)
[9] = vancomycin 512 μg/ml (Conc./MIC 1/2)
[10] = vancomycin 1024 μg/ml (Conc./MIC 1)
[11] = peptide treatment concentration 1 μg/ml
[12] = peptide treatment concentration 2 μg/ml
[13] = peptide treatment concentration 4 μg/ml
[14] = peptide treatment concentration 6 μg/ml
[15] = peptide treatment concentration 8 μg/ml
[16] = peptide treatment concentration 16 μg/ml
[17] = peptide treatment concentration 32 μg/ml
[18] = peptide treatment concentration 64 μg/ml

CC[C@H](C)[C@H](NC(=O)[C@H](CCCCN)NC(=O)[C@H](Cc1c[nH]c2ccccc12)NC(=O)[C@@H](N)CCCNC(=N)N)C(=O)N[C@@H](Cc1ccccc1)C(=O)N[C@@H](CCCCN)C(=O)N[C@@H](CCCCN)C(=O)N[C@H](C(=O)N1CCC[C@H]1C(=O)N[C@@H](CCCCN)C(=O)N[C@@H](Cc1ccccc1)C(=O)N[C@@H](CC(C)C)C(=O)N[C@@H](Cc1c[nH]cn1)C(=O)N[C@@H](CO)C(=O)N[C@@H](Cc1c[nH]c2ccccc12)C(=O)N[C@@H](CCCCN)C(=O)N[C@@H](CCCCN)C(=O)N[C@@H](Cc1c[nH]c2ccccc12)C(N)=O)[C@@H](C)CC [PapMA-4, RWK IFK KIP KFL HSW KKW-NH2] (H-RWKIFKKIPKFLHSWKKW-NH2; N-terminus assumed)
Peptide MIC during treatment with antibiotic (A. baumannii; [5]): 8 µg/mL | Peptide MIC during treatment with antibiotic (A. baumannii; [6]): 4 µg/mL | Peptide MIC during treatment with antibiotic (A. baumannii; [7]): 2 µg/mL | Peptide MIC during treatment with antibiotic (A. baumannii; [8]): 0 µg/mL | Peptide MIC during treatment with antibiotic (A. baumannii; linezolid 32 μg/ml (Conc./MIC 1/8)): 4 µg/mL | Peptide MIC during treatment with antibiotic (A. baumannii; linezolid 64 μg/ml (Conc./MIC 1/4)): 4 µg/mL | Peptide MIC during treatment with antibiotic (A. baumannii; linezolid […] (Conc./MIC 1)): 0 µg/mL | Peptide MIC during treatment with antibiotic (A. baumannii; linezolid […] (Conc./MIC 1/2)): 1 µg/mL | Peptide MIC during treatment with antibiotic (A. baumannii; [9]): 0.25 µg/mL | Peptide MIC during treatment with antibiotic (A. baumannii; [10]): 0 µg/mL | Peptide MIC during treatment with antibiotic (A. baumannii; vancomycin […] (Conc./MIC 1/4)): 0.25 µg/mL | Peptide MIC during treatment with antibiotic (A. baumannii; vancomycin […] (Conc./MIC 1/8)): 2 µg/mL | Peptide MIC during treatment with erythromycin (MDRAB 12035; [5]): 4 µg/mL | Peptide MIC during treatment with erythromycin (MDRAB 12035; [6]): 4 µg/mL | Peptide MIC during treatment with erythromycin (MDRAB 12035; [7]): 2 µg/mL | Peptide MIC during treatment with erythromycin (MDRAB 12035; [8]): 0 µg/mL | Peptide MIC during treatment with linezolid (MDRAB 12035; linezolid 64 μg/ml (Conc./MIC 1/8)): 4 µg/mL | Peptide MIC during treatment with linezolid (MDRAB 12035; linezolid 512 μg/ml (Conc./MIC 1)): 0 µg/mL | Peptide MIC during treatment with linezolid (MDRAB 12035; linezolid […] (Conc./MIC 1/2)): 1 µg/mL | Peptide MIC during treatment with linezolid (MDRAB 12035; linezolid […] (Conc./MIC 1/4)): 2 µg/mL | Peptide MIC during treatment with vancomycin (MDRAB 12035; [9]): 2 µg/mL | Peptide MIC during treatment with vancomycin (MDRAB 12035; [10]): 0.25 µg/mL | Peptide MIC during treatment with vancomycin (MDRAB 12035; vancomycin […] (Conc./MIC 1/4)): 2 µg/mL | Peptide MIC during treatment with vancomycin (MDRAB 12035; vancomycin […] (Conc./MIC 1/8)): 4 µg/mL | Minimal inhibitory concentration MIC (S. epidermidis): >128 µg/mL | Minimal inhibitory concentration MIC (MDRST 8007): 32 µg/mL (≈ 13 µM) | Minimal inhibitory concentration MIC (P. aeruginosa): 16 µg/mL (≈ 6.51 µM) | Minimal inhibitory concentration MIC (MDRAB 12036): 16 µg/mL (≈ 6.51 µM) | Minimal inhibitory concentration MIC (E. coli [1]): 16 µg/mL (≈ 6.51 µM) | Minimal inhibitory concentration MIC (MDREC 1229 [2]): 32 µg/mL (≈ 13 µM) | Minimal inhibitory concentration MIC (S. typhimurium): 32 µg/mL (≈ 13 µM) | Antibiotic MIC, Erythromycin (MDREC 1229 [3]; [11]): 64 µg/mL | Antibiotic MIC, Linezolid (MDREC 1229 [3]; [11]): >128 µg/mL | Antibiotic MIC, Vancomycin (MDREC 1229 [3]; [11]): >128 µg/mL | Antibiotic MIC, Erythromycin (MDREC 1229 [3]; [12]): 32 µg/mL | Antibiotic MIC, Linezolid (MDREC 1229 [3]; [12]): 64 µg/mL | Antibiotic MIC, Vancomycin (MDREC 1229 [3]; [12]): >128 µg/mL | Antibiotic MIC, Erythromycin (MDREC 1229 [3]; [13]): 16 µg/mL | Antibiotic MIC, Linezolid (MDREC 1229 [3]; [13]): 64 µg/mL | Antibiotic MIC, Vancomycin (MDREC 1229 [3]; [13]): >128 µg/mL | Antibiotic MIC, Erythromycin (MDREC 1229 [3]; [14]): 16 µg/mL | Antibiotic MIC, Linezolid (MDREC 1229 [3]; [14]): 64 µg/mL | Antibiotic MIC, Vancomycin (MDREC 1229 [3]; [14]): >128 µg/mL | Antibiotic MIC, Erythromycin (MDREC 1229 [3]; [15]): 4 µg/mL | Antibiotic MIC, Linezolid (MDREC 1229 [3]; [15]): 16 µg/mL | Antibiotic MIC, Vancomycin (MDREC 1229 [3]; [15]): 128 µg/mL | Antibiotic MIC, Erythromycin (MDREC 1229 [3]; [16]): 0.25 µg/mL | Antibiotic MIC, Linezolid (MDREC 1229 [3]; [16]): 4 µg/mL | Antibiotic MIC, Vancomycin (MDREC 1229 [3]; [16]): 32 µg/mL | Antibiotic MIC, Erythromycin (MDREC 1229 [3]; [17]): 0 µg/mL | Antibiotic MIC, Linezolid (MDREC 1229 [3]; [17]): 0 µg/mL | Antibiotic MIC, Vancomycin (MDREC 1229 [3]; [17]): 0 µg/mL | Antibiotic MIC, Erythromycin (MDREC 1229 [3]; [18]): 0 µg/mL | Antibiotic MIC, Linezolid (MDREC 1229 [3]; [18]): 0 µg/mL | Antibiotic MIC, Vancomycin (MDREC 1229 [3]; [18]): 0 µg/mL | Minimal inhibitory concentration MIC (MDRST 8009): 32 µg/mL (≈ 13 µM) | Minimal inhibitory concentration MIC (MDREC 1238): 32 µg/mL (≈ 13 µM) | Minimal inhibitory concentration MIC (MRSA 3126): >128 µg/mL | Minimal inhibitory concentration MIC (MRSA 3114): >128 µg/mL | Minimal inhibitory concentration MIC (S. aureus): >128 µg/mL | Synergistic effect of antibacterial activity with existing antibiotics compared with PapMA-1 (E. coli [4]; E. coli and MDREC1229): level similar to that of the PapMA-1 peptide | Antibiotic MIC, Erythromycin (E. coli [4]; erythromycin combined with peptide at 1 μg/ml): 64 µg/mL | Antibiotic MIC, Erythromycin (E. coli [4]; erythromycin combined with peptide at 2 μg/ml): 32 µg/mL | Antibiotic MIC, Erythromycin (E. coli [4]; erythromycin combined with peptide at 4 μg/ml): 16 µg/mL | Antibiotic MIC, Erythromycin (E. coli [4]; erythromycin combined with peptide at 6 μg/ml): 8 µg/mL | Antibiotic MIC, Erythromycin (E. coli [4]; erythromycin combined with peptide at 8 μg/ml): 8 µg/mL | Antibiotic MIC, Erythromycin (E. coli [4]; erythromycin combined with peptide at 16 μg/ml): 0 µg/mL | Antibiotic MIC, Erythromycin (E. coli [4]; erythromycin combined with peptide at 32 μg/ml): 0 µg/mL | Antibiotic MIC, Erythromycin (E. coli [4]; erythromycin combined with peptide at 64 μg/ml): 0 µg/mL | Antibiotic MIC, Linezolid (E. coli [4]; linezolid combined with peptide at 1 μg/ml): 128 µg/mL | Antibiotic MIC, Linezolid (E. coli [4]; linezolid combined with peptide at 2 μg/ml): 64 µg/mL | Antibiotic MIC, Linezolid (E. coli [4]; linezolid combined with peptide at 4 μg/ml): 32 µg/mL | Antibiotic MIC, Linezolid (E. coli [4]; linezolid combined with peptide at 6 μg/ml): 32 µg/mL | Antibiotic MIC, Linezolid (E. coli [4]; linezolid combined with peptide at 8 μg/ml): 16 µg/mL | Antibiotic MIC, Linezolid (E. coli [4]; linezolid combined with peptide at 16 μg/ml): 0 µg/mL | Antibiotic MIC, Linezolid (E. coli [4]; linezolid combined with peptide at 32 μg/ml): 0 µg/mL | Antibiotic MIC, Linezolid (E. coli [4]; linezolid combined with peptide at 64 μg/ml): 0 µg/mL | Antibiotic MIC, Vancomycin (E. coli [4]; vancomycin combined with peptide at 1 μg/ml): >128 µg/mL | Antibiotic MIC, Vancomycin (E. coli [4]; vancomycin combined with peptide at 2 μg/ml): >128 µg/mL | Antibiotic MIC, Vancomycin (E. coli [4]; vancomycin combined with peptide at 4 μg/ml): >128 µg/mL | Antibiotic MIC, Vancomycin (E. coli [4]; vancomycin combined with peptide at 6 μg/ml): 128 µg/mL | Antibiotic MIC, Vancomycin (E. coli [4]; vancomycin combined with peptide at 8 μg/ml): 32 µg/mL | Antibiotic MIC, Vancomycin (E. coli [4]; vancomycin combined with peptide at 16 μg/ml): 0 µg/mL | Antibiotic MIC, Vancomycin (E. coli [4]; vancomycin combined with peptide at 32 μg/ml): 0 µg/mL | Antibiotic MIC, Vancomycin (E. coli [4]; vancomycin combined with peptide at 64 μg/ml): 0 µg/mL
